Experiments:
Type in all cases: cell-based
[1] = system: HER-2/neu transfected human breast cancer cell line (MCF/18); experiment: MTT tetrazolium dye assay, cell number after 3-day incubation, MCF/18; conditions: MCF/18 cells
Description: (§1) Methods: The effect of combining the COX-2 inhibitor (SC 236) and zoledronic acid compared to either agent alone was tested in a HER-2/neu transfected human breast cancer cell line (MCF/18) and the control vector transfected line (MCF/neo). Cell number was determined after a 3-day incubation using the MTT tetrazolium dye assay.
as §1, with “(SC236) with” for “(SC 236) and”, “and/or taxotere” for “compared to either agent alone”

[2] = system: DU-145 human prostate carcinoma cell line; experiment: MTT tetrazolium dye assay, cell number after 3 day treatment, DU-145; conditions: DU-145 cells
Description: Methods: The effect of combining the COX-2 inhibitor (SC236) and zoledronic acid compared to either agent alone was tested in the DU-145 human prostate carcinoma cell line. Cell number was determined after a 3 day treatment using the MTT tetrazolium dye assay.

[3] = system: control vector transfected human breast cancer cell line (MCF/neo); experiment: MTT tetrazolium dye assay, cell number after 3-day incubation, MCF/neo; conditions: MCF/neo cells
Description: as §1
as §1, with “(SC236) with” for “(SC 236) and”, “and/or taxotere” for “compared to either agent alone”

[4] = single agent 1-10 μM, 3-day incubation (Example 19)
[5] = single agent, concentration not given, 3-day incubation (Example 20)

SMILES	growth inhibition [1, 4]	growth inhibition ([2]; 5 μM)	growth inhibition ([2]; 1-25 μM)	growth inhibition [3, 4]	growth inhibition [1, 5]	growth inhibition ([2]; 1-10 μM)	inhibition at 3 µM ([2]; Homo sapiens, 72 h, 3 μM, read-out: growth inhibition)	growth inhibition [3, 5]
NS(=O)(=O)c1ccc(-n2nc(C(F)(F)F)cc2-c2ccc(Cl)cc2)cc1 [SC236]	15-41%	40%	0-77%	18-53%				
O=P(O)(O)C(O)(Cn1ccnc1)P(=O)(O)O [zoledronic acid, 2-(imidazol-1yl)-1-hydroxyethane-1,1-diphosphonic acid]	9-53%			8-67%	9%-53%	8-70%	23%	18%-67%

Source: patent US7345088B2, “Pharmaceutical composition for use for the treatment of malignancies comprising in combination a bisphosphonates, a cox-2 inhibitor and a taxol” (Penn State Research Foundation, priority 2001, dated 2008)
